Series [1] has as its system E. cloacae DSM 6234. Briefly: Antibacterial activity: MIC/MBC, MIC with PAβN, disc-diffusion. Format: cell-based, Enterobacter cloacae. The following applies: Enterobacter cloacae, DSM6234; E. cloacae DSM 6234; read-out: MIC. The method, then:
(§1) Direct antimicrobial activity was determined against the following standard strains: (1) Gram-positive cocci: methicillin-sensitive Staphylococcus aureus ATCC 6538P (MSSA), methicillin-resistant S. aureus subsp. aureus ATCC 43300 (MRSA), S. epidermidis ATCC 12228, Enterococcus faecium ATCC 6057, E. faecalis ATCC 29212, Bacillus subtilis ATCC 6633; (2) Gram-negative bacteria from Enterobacteriales order: Klebsiella pneumoniae ATCC 13883, Escherichia coli ATCC 25922, Enterobacter cloacae DSM 6234, Proteus mirabilis ATCC 12453, Serratia marcescens ATCC 13880; (3) Gram-negative non-fermentative rods: Acinetobacter baumannii ATCC 19606, Pseudomonas aeruginosa ATCC 27853, Stenotrophomonas maltophilia ATCC 12714, S. maltophilia ATCC 13637, Burkholderia cepacia ATCC 25416, Bordetella bronchiseptica ATCC 4617; (4) yeasts: Candida albicans ATCC 90028, C. krusei ATCC 6258, C. parapsilosis ATCC 22019, C. tropicalis (Castellani) Berkhout ATCC 750, C. tropicalis IBA 171, C. guilliermondii IBA 155, and Saccharomyces cerevisiae ATCC 9763. Moreover, 5 clinical strains of methicillin-resistant S. aureus were also included: NMI 664 K, NMI 1576 K, NMI 1712 K, NMI 1991 K, and NMI 2541 K. All strains were stored at −80 °C. Prior to testing, each bacterial strain was subcultured twice on tryptic soy agar TSA (bioMerieux) medium and yeast strains on Sabouraud dextrose agar (bioMerieux) for 24–48 h at 30 °C to ensure viability. The antimicrobial activity was evaluated as previously described[26] by the disc-diffusion method and the MIC determination assays according to the EUCAST (ref. [71] and [72]) and CLSI (ref. [53] and [73]) recommendations. Assessment of bactericidal (MBC) and fungicidal (MFC) activities was performed according to the CLSI recommendations.[54,74] […] The new benzosiloxaboroles were dissolved in DMSO (Sigma).
Considering that the MDR efflux pumps often contribute to Gram-negative rod resistance, the MIC values of studied agents, with or without the pump inhibitor, PAβN (20 μg mL^−1) (Sigma), were determined.[75] The MIC was determined using Mueller–Hinton II broth medium (MHB) (Becton Dickinson) by the broth microdilution method, according to the CLSI guideliness.[53] To minimize the influence of PAβN on the destabilization of bacterial cell covers, the tests were conducted in the presence of 1 mM MgSO4 (Sigma).[76] At least a 4-fold reduction in the MIC value after the addition of PAβN was considered significant.[56,77]
(In general: Agar diffusion results depend on both activity and mobility in agar.)

Series [2] concerns C. albicans ATCC 90028. Briefly: Antifungal activity: MIC/MFC, disc-diffusion. It is filed as cell-based, Candida albicans. The note with it: for diameter of inhibition zone: C. albicans ATCC 90028, (-) = zone not observed, paper discs 9 mm; for MIC: Candida albicans, ATCC90028, read-out: MIC. The protocol:
Direct antimicrobial activity was determined against the following standard strains: (1) Gram-positive cocci: methicillin-sensitive Staphylococcus aureus ATCC 6538P (MSSA), methicillin-resistant S. aureus subsp. aureus ATCC 43300 (MRSA), S. epidermidis ATCC 12228, Enterococcus faecium ATCC 6057, E. faecalis ATCC 29212, Bacillus subtilis ATCC 6633; (2) Gram-negative bacteria from Enterobacteriales order: Klebsiella pneumoniae ATCC 13883, Escherichia coli ATCC 25922, Enterobacter cloacae DSM 6234, Proteus mirabilis ATCC 12453, Serratia marcescens ATCC 13880; (3) Gram-negative non-fermentative rods: Acinetobacter baumannii ATCC 19606, Pseudomonas aeruginosa ATCC 27853, Stenotrophomonas maltophilia ATCC 12714, S. maltophilia ATCC 13637, Burkholderia cepacia ATCC 25416, Bordetella bronchiseptica ATCC 4617; (4) yeasts: Candida albicans ATCC 90028, C. krusei ATCC 6258, C. parapsilosis ATCC 22019, C. tropicalis (Castellani) Berkhout ATCC 750, C. tropicalis IBA 171, C. guilliermondii IBA 155, and Saccharomyces cerevisiae ATCC 9763. Moreover, 5 clinical strains of methicillin-resistant S. aureus were also included: NMI 664 K, NMI 1576 K, NMI 1712 K, NMI 1991 K, and NMI 2541 K. All strains were stored at −80 °C. Prior to testing, each bacterial strain was subcultured twice on tryptic soy agar TSA (bioMerieux) medium and yeast strains on Sabouraud dextrose agar (bioMerieux) for 24–48 h at 30 °C to ensure viability. The antimicrobial activity was evaluated as previously described[26] by the disc-diffusion method and the MIC determination assays according to the EUCAST (ref. [71] and [72]) and CLSI (ref. [53] and [73]) recommendations. Assessment of bactericidal (MBC) and fungicidal (MFC) activities was performed according to the CLSI recommendations.[54,74] The following reference agents were used: fluconazole (in the case of fungi), linezolid (for Gram-positive bacteria), and nitrofurantoin (for Gram-negative rods). The new benzosiloxaboroles were dissolved in DMSO (Sigma).

Series [3] has as its system C. krusei ATCC 6258. Briefly: Antifungal activity: MIC/MFC, disc-diffusion. Format: cell-based. The note with it: for diameter of inhibition zone: (-) = zone not observed, paper discs 9 mm; for MIC: read-out: MIC. The protocol:
as §1

In series [4] the test system is Human normal lung fibroblasts MRC-5. Briefly: MTT-based viability (cytotoxicity) assay. The following applies: for IC50: Homo sapiens, MRC5, 48 h. A digest of the protocol: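 MRC-5 pd30 human lung fibroblasts in supplemented MEME at 37 °C, 5% CO2; viability by MTT, absorbance 570 nm, triplicate, as percent of control cells. Selectivity index taken as IC50/MIC against S. aureus MRSA strains.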

Structures are written as SMILES. ≈ marks a conversion by molar mass, not a printed value.

`C[Si]1(C)OB(O)c2cc(F)c(SC3CC(=O)N(c4ccc(F)cc4)C3=O)c(F)c21` (centres unmarked) [Compound 14, 3-((5,7-Difluoro-3-hydroxy-1,1-dimethyl-1,3-dihydrobenzo[c][1,2,5]oxasilaborol-6-yl)thio)-1-(4-fluorophenyl)pyrrolidine-2,5-dione]: the MIC (usually the lowest concentration found to suppress growth) in series [1] is greater than 200 µg/mL; in series [2], 200 µg/mL (≈ 457 µM); in series [3] (Pichia kudriavzevii, ATCC6258) it was 12.5 µg/mL (≈ 28.6 µM). For the same molecule, the “diameter of inhibition zone” value in series [2] is recorded as 21 mm; in series [3] (C. krusei ATCC 6258) it was 30 mm. Further, the MFC – broadly, the smallest concentration meeting the test's criterion for killing the fungus – in series [3] (Pichia kudriavzevii, ATCC6258, C. krusei ATCC 6258) was determined as 100 µg/mL (≈ 229 µM). In addition, the “viability of MRC-5” value is 90.4±7.6 % of control ± SD in series [4] (6.25 µg·mL−1, 48 h); 88.8±5.4 % of control ± SD in series [4] (12.5 µg·mL−1, 48 h); 87.5±3.5 % of control ± SD in series [4] (25 µg·mL−1, 48 h); 80.3±7.5 % of control ± SD in series [4] (50 µg·mL−1, 48 h); 52.0±2.8 % of control ± SD in series [4] (100 µg·mL−1, 48 h); 27.3±3.2 % of control ± SD in series [4] (200 µg·mL−1, 48 h). In addition, the “viability of MRC-5” value in series [4] (400 µg·mL−1, 48 h) is recorded as 0.1±0.1 % of control ± SD. In series [4], inhibition was half-maximal at 133 µg/mL (≈ 305 µM) (IC50).

As for `C[Si]1(C)OB(O)c2ccc(SC3CC(=O)N(c4ccc(F)cc4)C3=O)c(F)c21` (centres unmarked) [Compound 15, 3-((7-Fluoro-3-hydroxy-1,1-dimethyl-1,3-dihydrobenzo[c][1,2,5]oxasilaborol-6-yl)thio)-1-(4-fluorophenyl)pyrrolidine-2,5-dione], the MIC in series [1] was greater than 200 µg/mL; in series [2], 200 µg/mL (≈ 477 µM); in series [3] (Pichia kudriavzevii, ATCC6258), 25 µg/mL (≈ 59.6 µM). Further, the “diameter of inhibition zone” value in series [2] was 19 mm; in series [3] (C. krusei ATCC 6258), 29 mm. Further, the “viability of MRC-5” value is recorded as 89.2±0.3 % of control ± SD in series [4] (6.25 µg·mL−1, 48 h); 77.9±4.3 % of control ± SD in series [4] (12.5 µg·mL−1, 48 h); 73.7±0.8 % of control ± SD in series [4] (25 µg·mL−1, 48 h); 69.9±1.8 % of control ± SD in series [4] (50 µg·mL−1, 48 h); 65.0±0.1 % of control ± SD in series [4] (100 µg·mL−1, 48 h); 41.5±0.7 % of control ± SD in series [4] (200 µg·mL−1, 48 h). Moreover, the “viability of MRC-5” value in series [4] (400 µg·mL−1, 48 h) was 6.7±0.1 % of control ± SD. Further, in series [4], the IC50 (as a rule, the concentration needed to halve the response being measured) came to 145 µg/mL (≈ 346 µM).

For `C[Si]1(C)OB(O)c2cc(F)c(SC3CC(=O)N(c4ccc(Br)c(C(F)(F)F)c4)C3=O)c(F)c21` (centres unmarked) [Compound 16, 1-(4-Bromo-3-(trifluoromethyl)phenyl)-3-((5,7-difluoro-3-hydroxy-1,1-dimethyl-1,3-dihydrobenzo[c][1,2,5]oxasilaborol-6-yl)thio)pyrrolidine-2,5-dione], the MIC was greater than 200 µg/mL in series [1]; 50 µg/mL (≈ 88.3 µM) in series [2]; 25 µg/mL (≈ 44.2 µM) in series [3] (Pichia kudriavzevii, ATCC6258). The figures for the “diameter of inhibition zone” value in series [2] and in series [3] (C. krusei ATCC 6258) were 25 mm and 21 mm, respectively. The “viability of MRC-5” value in series [4] (6.25 µg·mL−1, 48 h) was 97.0±0.2 % of control ± SD; in series [4] (12.5 µg·mL−1, 48 h), 84.8±2.7 % of control ± SD; in series [4] (25 µg·mL−1, 48 h) it was 78.5±1.6 % of control ± SD; in series [4] (50 µg·mL−1, 48 h), 62.7±2.5 % of control ± SD; in series [4] (100 µg·mL−1, 48 h), 46.0±1.4 % of control ± SD; in series [4] (200 µg·mL−1, 48 h), 0.4±0.2 % of control ± SD. Further, the “viability of MRC-5” value in series [4] (400 µg·mL−1, 48 h) is 0.1±0.0 % of control ± SD. This molecule had a 50% inhibitory concentration (IC50) in series [4] of 76.2 µg/mL (≈ 135 µM).

As for `C[Si]1(C)OB(O)c2ccc(SC3CC(=O)N(c4ccc(Br)c(C(F)(F)F)c4)C3=O)c(F)c21` (centres unmarked) [Compound 17, 1-(4-Bromo-3-(trifluoromethyl)phenyl)-3-((7-fluoro-3-hydroxy-1,1-dimethyl-1,3-dihydrobenzo[c][1,2,5]oxasilaborol-6-yl)thio)pyrrolidine-2,5-dione], the MIC was greater than 200 µg/mL in series [1]; 100 µg/mL (≈ 182 µM) in series [2]; 100 µg/mL (≈ 182 µM) in series [3] (Pichia kudriavzevii, ATCC6258). Further, the “diameter of inhibition zone” value in series [2] amounted to 20 mm; in series [3] (C. krusei ATCC 6258) it was 18 mm. The “viability of MRC-5” value in series [4] (6.25 µg·mL−1, 48 h) is recorded as 99.9±4.6 % of control ± SD; in series [4] (12.5 µg·mL−1, 48 h), 96.1±2.3 % of control ± SD; in series [4] (25 µg·mL−1, 48 h), 87.6±0.2 % of control ± SD; in series [4] (50 µg·mL−1, 48 h), 89.2±8.5 % of control ± SD; in series [4] (100 µg·mL−1, 48 h) it was 71.2±1.3 % of control ± SD; in series [4] (200 µg·mL−1, 48 h), 29.5±0.3 % of control ± SD. Moreover, the “viability of MRC-5” value in series [4] (400 µg·mL−1, 48 h) was 0.0±0.0 % of control ± SD. For the same molecule, the IC50 in series [4] stood at 140 µg/mL (≈ 254 µM).

Regarding `C[Si]1(C)OB(O)c2cc(F)c(SCCC(=O)OCCCCCC[n+]3ccccc3)c(F)c21` [Compound 18, 1-(6-((3-((5,7-difluoro-3-hydroxy-1,1-dimethyl-1,3-dihydrobenzo[c][1,2,5]oxasilaborol-6-yl)thio)propanoyl)oxy)hexyl)pyridin-1-ium trifluoromethanesulfonate], the MIC in series [1] is greater than 400 µg/mL; in series [2], greater than 400 µg/mL; in series [3] (Pichia kudriavzevii, ATCC6258) it was greater than 400 µg/mL.

Turning to `C[Si]1(C)OB(O)c2ccc(SCCC(=O)OCCCCCC[n+]3ccccc3)c(F)c21` [Compound 19, 1-(6-((3-((7-Fluoro-3-hydroxy-1,1-dimethyl-1,3-dihydrobenzo[c][1,2,5]oxasilaborol-6-yl)thio)propanoyl)oxy)hexyl)pyridin-1-ium trifluoromethanesulfonate], the MIC is greater than 400 µg/mL in series [1]; greater than 400 µg/mL in series [2]; greater than 400 µg/mL in series [3] (Pichia kudriavzevii, ATCC6258).

With `C[Si]1(C)OB(O)c2ccc(SCCS(=O)(=O)c3ccccc3)c(F)c21` [Compound 21, 7-Fluoro-1,1-dimethyl-6-((2-(phenylsulfonyl)ethyl)thio)benzo[c][1,2,5]oxasilaborol-3(1H)-ol], the MIC in series [1] was greater than 400 µg/mL; in series [2] it was 400 µg/mL (≈ 1010 µM); in series [3] (Pichia kudriavzevii, ATCC6258), greater than 400 µg/mL.

For the molecule `C[Si]1(C)OB(O)c2cc(F)c(S(=O)(=O)Cl)c(F)c21` [Compound 26, 5,7-Difluoro-3-hydroxy-1,1-dimethyl-1,3-dihydrobenzo[c][1,2,5]oxasilaborole-6-sulfonyl chloride], the MIC was greater than 400 µg/mL in series [1]; greater than 400 µg/mL in series [2]; greater than 400 µg/mL in series [3] (Pichia kudriavzevii, ATCC6258).

Source of the values: PMC11110727, “Exploiting thiol-functionalized benzosiloxaboroles for achieving diverse substitution patterns – synthesis, characterization and biological evaluation of promising antibacterial agents” (RSC Medicinal Chemistry, 2024).
